Laboratory results published in patent US12382888B2, “Compositions and methods for modulating immunity in plants” (Boyce Thompson Institute for Plant Research, Inc., priority 2013, dated 2025).
Entries after “also recorded” stand apart in the source; their conditions may differ. Like-named read-outs stand apart in the source and are kept apart here.

Legend:
[1] = test system: Phytophthora infestans (US22); assay type: in vivo; conditions: for resistance to US22 P. infestans: at the concentration tested; for resistance to P. infestans: root treatment, at the concentrations tested
[2] = test system: Phytophthora infestans (US22); assay type: in vivo

CC1O[C@@H](O[C@H](C)CCCCCCCCC(=O)NCCO)C(O)C[C@H]1O (stereo partly shown) [easc #18]
resistance to virulent US22 P. infestans (lesion size 5 dpi, sporangia 6 dpi) ([1]; in vivo): enhanced resistance

CC1O[C@@H](O[C@H](C)CCCCCCC(=O)O)C(O)C[C@H]1O (stereo partly shown) [ascr #10]
resistance to US22 P. infestans ([1]; tomato cv. M82): not

CC1O[C@@H](OCCCCC(=O)O)C(O)C[C@H]1O (stereo partly shown) [oscr #9]
P. infestans resistance in tomato ([1]; in vivo): − | resistance to US22 P. infestans ([1]; tomato cv. M82): not | resistance to P. infestans ([1]; tomato cv. M82): neither ascr #3 nor oscr #9 affected resistance

C[C@H](CCC(=O)O)O[C@@H]1O[C@@H](C)[C@H](O)C[C@H]1O [ascr #9]
P. infestans resistance in tomato ([1]; in vivo): + | resistance to US22 P. infestans (lesion size, sporangia number) ([1]; tomato cv. M82, root immersion 1 μM 48 hours before, 7 dpi): enhances resistance | resistance to P. infestans ([1]; tomato cv. M82): enhanced resistance

CC1O[C@@H](O[C@@H](C)CCCCCCCCC(=O)O)C(O)C[C@H]1O (stereo in doubt) [ascr #18, (10R)-(3′R,5′R-dihydroxy-6′S-methyl-(2H)-tetrahydropyran-2-yloxy)-undecanoic Acid]
protection against virulent P. infestans ([2]; potato cv. Desiré, Eva or Yukon Gold, 10 nM by root immersion or foliar spray 48 hours prior): provided protection; also recorded: protects against P. infestans-induced late blight | resistance to virulent US22 P. infestans (lesion size 5 dpi) ([2]; potato cv. Désirée, root immersion 0.01 μM 48 hours before): enhanced resistance | P. infestans resistance in tomato ([1]; tomato (M82), root pretreatment with 0.01 or 1 μM ascaroside): + | resistance to P. infestans ([1]; tomato cv. M82): enhanced resistance | protection against US22 P. infestans (sporangia number, lesion size) ([1]; tomato cv. M82, roots pretreated 48 hours, 1 nM and 10 nM): strong protection | resistance to virulent US22 P. infestans ([1]; tomato cv. M82 and Rio Grande, root immersion 0.01 μM 48 hours before inoculation): enhances resistance | resistance to virulent US22 P. infestans (lesion size 5 dpi, sporangia 6 dpi) ([1]; tomato cv. Rio Grande, root immersion 0.01 μM 48 hours before): enhanced resistance | enhancement of resistance ([1]; tomato, 100 nM): reduced or lost | ascr #18 concentrations of maximal protection/resistance ([1]; tomato, P. infestans US22): 1 to 10 nM | concentration that enhanced resistance (as little as) ([1]; tomato, P. infestans US22): 10 pM | protection against P. infestans ([1]; tomato, higher concentrations): decreased

CC1O[C@@H](O[C@H](C)CCCC/C=C/C(=O)O)C(O)C[C@H]1O (stereo partly shown) [ascr #3]
resistance of M82 against P. infestans ([1]; 0.01 μM): did not have a significant effect | P. infestans resistance in tomato ([1]; in vivo): − | resistance to P. infestans ([1]; tomato cv. M82): neither ascr #3 nor oscr #9 affected resistance
